Calls of active or inactive are those of the source. The calls are words filed in the database; no cut-off is given here.
Tests used:
Mus musculus [1] = experiment: Antitumor activity in BDF1 mouse bearing B16 melanoma assessed as loss of body weight at 20 mg/kg, ip; type: functional; details: route intraperitoneal
Mus musculus [2] = experiment: Antitumor activity in BDF1 mouse bearing L1210 leukemia assessed as loss of body weight at 8 ug/kg, ip; type: functional
Mus musculus [3] = experiment: Antitumor activity in BDF1 mouse bearing L1210 leukemia assessed as survival for 30 days at 32 ug/kg, ip; type: functional, organism-based
Mus musculus [4] = experiment: Antitumor activity in BDF1 mouse bearing B16 melanoma assessed as loss of body weight at 30 mg/kg, ip; type: functional; details: route intraperitoneal
Mus musculus [5] = experiment: Antitumor activity in BDF1 mouse bearing L1210 leukemia assessed as increase in life span at 8 ug/kg, ip relative to control; type: functional
Mus musculus [6] = experiment: Antitumor activity in BDF1 mouse bearing L1210 leukemia assessed as loss of body weight at 32 ug/kg, ip; type: functional
L1210 = experiment: Antitumor activity against mouse L1210 cell line assessed as inhibition of [3H]thymidine incorporation; type: functional, cell-based
Mus musculus [7] = experiment: Antitumor activity in BDF1 mouse bearing L1210 leukemia assessed as increase in life span at 16 ug/kg, ip relative to control; type: functional
Mus musculus [8] = experiment: Antitumor activity in BDF1 mouse bearing L1210 leukemia assessed as loss of body weight at 16 ug/kg, ip; type: functional
Mus musculus [9] = experiment: Antitumor activity in BDF1 mouse bearing B16 melanoma assessed as inhibition of tumor growth at 20 mg/kg, ip relative to control; type: functional; details: route intraperitoneal
Mus musculus [10] = experiment: Antitumor activity in BDF1 mouse bearing L1210 leukemia assessed as increase in life span at 32 ug/kg, ip relative to control; type: functional
Mus musculus [11] = experiment: Antitumor activity in BDF1 mouse bearing L1210 leukemia assessed as survival for 30 days at 8 ug/kg, ip; type: functional, organism-based
Mus musculus [12] = experiment: Antitumor activity in BDF1 mouse bearing B16 melanoma assessed as inhibition of tumor growth at 30 mg/kg, ip relative to control; type: functional; details: route intraperitoneal
Mus musculus [13] = experiment: Antitumor activity in BDF1 mouse bearing B16 melanoma assessed as inhibition of tumor growth at 5 mg/kg, ip relative to control; type: functional; details: route intraperitoneal
Mus musculus [14] = experiment: Antitumor activity in BDF1 mouse bearing L1210 leukemia assessed as increase in life span at 5 ug/kg, ip relative to control; type: functional
Mus musculus [15] = experiment: Antitumor activity in BDF1 mouse bearing B16 melanoma assessed as loss of body weight at 5 mg/kg, ip; type: functional; details: route intraperitoneal
Mus musculus [16] = experiment: Antitumor activity in BDF1 mouse bearing L1210 leukemia assessed as loss of body weight at 5 ug/kg, ip; type: functional
Mus musculus [17] = experiment: Antitumor activity in BDF1 mouse bearing L1210 leukemia assessed as survival for 30 days at 5 ug/kg, ip; type: functional, organism-based

| Structure (SMILES) | Activity (Mus musculus [1]) [%] | Activity (Mus musculus [2]) [%] | Activity (Mus musculus [3]) | Activity (Mus musculus [4]) [%] | Activity (Mus musculus [5]) [%] | Activity (Mus musculus [6]) [%] | IC50 (L1210) [µM] | Activity (Mus musculus [7]) [%] | Activity (Mus musculus [8]) [%] | inhibition in vivo at 20 mg/kg (Mus musculus [9]) [%] | Activity (Mus musculus [10]) [%] | Activity (Mus musculus [11]) | inhibition in vivo at 30 mg/kg (Mus musculus [12]) [%] | inhibition in vivo at 5 mg/kg (Mus musculus [13]) [%] | Activity (Mus musculus [14]) [%] | Activity (Mus musculus [15]) [%] | Activity (Mus musculus [16]) [%] | Activity (Mus musculus [17]) |
| --- | --- | --- | --- | --- | --- | --- | --- | --- | --- | --- | --- | --- | --- | --- | --- | --- | --- | --- |
| CC/C=C/C/C=C/C/C=C/C/C=C/C/C=C/C/C=C/CCC(=O)N/N=C(\CO)[C@]1(O)Cc2c(O)c3c(c(O)c2[C@@H](OC2C[C@H](N)[C@H](O)[C@H](C)O2)C1)C(=O)c1c(OC)cccc1C3=O.Cl (stereo partly specified) | -6 | -2 | inactive | -6 | 53 | -11 | 1.4 | 107 | -4 | 53 | 80 | inactive | 70 | – | – | – | – | – |
| COc1cccc2c1C(=O)c1c(O)c3c(c(O)c1C2=O)C[C@@](O)(C(=O)CO)C[C@@H]3O[C@H]1C[C@H](N)[C@H](O)[C@H](C)O1 [DOXORUBICIN] | – | -19 | – | – | – | – | 0.15 | – | – | – | – | inactive | – | 35 | 53 | -10 | -7 | inactive |

Source: ChEMBL document CHEMBL1147787, “Synthesis and preliminary antitumor activity evaluation of a DHA and doxorubicin conjugate” (Bioorg Med Chem Lett, 2006)
